For `N#Cc1ccc([C@@H]2O[C@H](CO)[C@@H](O)[C@H](O)[C@H]2O)cc1Cc1ccc(C2CC2)cc1.O=C(O)[C@@H]1CCCN1`, the “mechanical stability of the crystals” value (allows grinding of the crystals) was “high mechanical stability” and the “physical and chemical stability” value (under various environmental conditions and during the production of a medicament) was “high physical and chemical stability”.

From patent US10864225B2, “Treatment of metabolic disorders in equine animals” (Boehringer Ingelheim Vetmedica GmbH, priority 2013, dated 2020)
